The values that follow come from patent US20260250318A1, “COMPOSITIONS AND METHODS FOR CROSSING THE BLOOD BRAIN BARRIER” (VOYAGER THERAPEUTICS, INC., priority 2022, published 2026).

Positions count from the first letter of the chain named.

Test [1] relates to brains, heart, liver, muscle, and DRG of the NHPs. As to the kind of experiment: Maturation of TTM-001 and TTM-002 capsids, NGS enrichment in NHP tissues. In kind it is in vivo. Particulars: relative to AAV9 control. The method in brief:
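Variants carry mutations within and flanking the loop IV peptide insert: positions 450–466 were triplet-randomized, while positions 449–466 received low-frequency point mutations. The combined pool went into two NHPs, and each peptide was scored by NGS enrichment ratio against AAV9.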

Test [2] has as its system brain. As to the kind of experiment: Maturation of TTM-002 capsid, NGS enrichment in brain of CD-1 Outbred mice. It is filed as in vivo. Particulars: NGS fold-enrichment in the brain of CD-1 Outbred mice; intravenous, 1.0×10^12 VG/dose, 14 days; RNA; relative to non-matured TTM-002 control. The text has this:
This Example describes maturation of the TTM-001 (SEQ ID NO: 981 (amino acid) and 983 (DNA), comprising SEQ ID NO: 941) and TTM-002 (SEQ ID NO: 982 (amino acid) and 984 (DNA), comprising SEQ ID NO: 2) capsid variants to further enhance their transduction and biodistribution in the central nervous system and evolve the AAV capsid variants to provide further cross-species compatibility. Two approaches were used to mature the TTM-001 and TTM-002 capsid sequences in order to randomize and mutate within and around the peptide insert comprised within loop IV of the capsid variant. […] In the first maturation approach, sets of three contiguous amino acids were randomized across the mutagenesis region in the TTM-001 and TTM-002 sequences, which spanned from position 450 to position 466, numbered according to SEQ ID NO: 981 and 982. In the second maturation approach, mutagenic primers were used to introduce point mutations at a low frequency, scattered across the mutagenesis region in the TTM-001 and TTM-002 sequences ranging from position 449 to position 466, numbered according to SEQ ID NO: 981 and 982. AAV capsid variants arising from each maturation approach for TTM-001 were pooled together and AAV capsid variants arising from each maturation approach for TTM-002 were also pooled together, for subsequent testing and characterization in mice.
The library of pooled matured AAV capsid variants generated from TTM-001 or library of pooled matured AAV capsid variants generated from the TTM-002 matured AAV capsid variant each were intravenously injected into the tail vein of three female CD-1 Outbred mice (Charles River) at a dose of 1.0×10^12 VG/dose. After 14-days in life, the brains of the mice were isolated and RNA was extracted. Following RNA recovery and RT-PCR amplification, a systematic NGS enrichment analysis was performed to calculate the fold enrichment ratio relative to the corresponding TTM-001 or TTM-002 control, and the peptides comprised within the variants were identified. The data for the TTM-001 matured capsid variants is provided in Table 13 and the data for the TTM-002 matured capsid variants is provided in Table 14.

Test [3] relates to brain. As to the kind of experiment: Matured TTM-001 and TTM-002 variants, NGS enrichment in mouse brain. In kind it is in vivo, mice. Particulars: mouse brain; relative to AAV9 control.
Test [4] deals with HEK 293T cells transfected with pCMV6 negative control. It is filed as cell-based. The following applies: Table 28; pCMV6 transfected cells (negative control, reference). On the procedure: (§1) Briefly, a transduction assay was performed in that HEK 293T cells were transfected via calcium phosphate transfection with a plasmid expressing ALPL, an AAVR positive control, or a pCMV6 negative control (250 ng or 500 ng of plasmid). AAVR is a universal AAV entry factor involved in AAV transduction. […] At 24-hours post-transduction, GFP expression and luciferase activity were measured to quantify and observe AAV cellular transduction. […] The TTM-002, TTM-006, TTM-018, and TTM-019 capsid variants all comprised the SPH motif immediately subsequent to position 455, numbered relative to SEQ ID NO: 138 and a positive residue in one of the next three residues subsequent to the SPH motif.
Three isoforms of ALPL exist, isoform 1 (Alkaline phosphatase, placental-like 2 (ALPPL2), NM_031313, which is incorporated by reference herein), isoform 2 (alkaline phosphatase, placental (ALPP), NM_001632, which is incorporated by reference herein), and isoform 3 (alkaline phosphatase, intestinal (ALPLI), NM_001631, which is incorporated by reference herein), that can also be expressed on cell surfaces via a GPI-anchor. […] The transduction assay described above was repeated with the three isoforms. HEK 293T cells were transfected via calcium phosphate transfection with a plasmid expressing ALPL, isoform 1 of ALPL, isoform 2 of ALPL, isoform 3 of ALPL, an AAVR positive control, or a pCMV6 negative control. At 24 hours post-transfection, the HEK 293T cells expressing the ALPL receptor were transduced with an AAV particle comprising the TTM-001 capsid variant or the TTM-002 capsid variant, expressing a Luc2-GFP payload. At 24-hours post-transduction, luciferase activity (RLU) was measured to quantify AAV cellular transduction.
To determine if deletion of the endoplasmic reticulum (ER) localization signal of ALPL affected transduction of the TTM-001 and TTM-002 capsid variants, HEK 293T cells were transfected via calcium phosphate transfection with a plasmid expressing ALPL, ALP with a deletion of the ER localization signal (ALPL transcript variant 2 that lacks the ER signal (NM_001127501, which is incorporated by reference herein)), or a pCMV6 negative control. At 24 hours post-transfection, the HEK 293T cells expressing the ALPL receptor were transduced with an AAV particle comprising the TTM-001 capsid variant, the TTM-002 capsid variant, or an AAV9 capsid control, expressing a GFP payload. At 24-hours post-transduction, luciferase activity (RLU) was measured to quantify AAV cellular transduction. Data was normalized to fold change in luciferase activity (RLU) compared to the pCMV6 control.
(§2) To determine if the TTM-001 and TTM-002 capsid variants could bind to both the human ALPL protein (NM_000478.6, which is incorporated by reference herein) and the mouse ALPL ortholog (NM_001287172.1, which is incorporated by reference herein), HEK 293T cells were transfected via calcium phosphate transfection with a plasmid expressing human ALPL, the murine ortholog of ALPL, or a pCMV6 negative control. At 24 hours post-transfection, the HEK 293T cells expressing the ALPL receptor were transduced with an AAV particle comprising the TTM-001 capsid variant, the TTM-002 capsid variant, or an AAV9 control capsid protein, expressing a Luc2-GFP payload. At 24-hours post-transduction, luciferase activity (RLU) was measured to quantify AAV cellular transduction.
AAV entry factor involved in AAV transduction), or a pCMV6 negative control.

In test [5] the target is T1, AAVR (Homo sapiens, UniProt Q8IZA0).
T1 construct: expressed in transfected cells; host or cells: HEK 293T
T1 sequence (Q8IZA0 whole entry, looked up): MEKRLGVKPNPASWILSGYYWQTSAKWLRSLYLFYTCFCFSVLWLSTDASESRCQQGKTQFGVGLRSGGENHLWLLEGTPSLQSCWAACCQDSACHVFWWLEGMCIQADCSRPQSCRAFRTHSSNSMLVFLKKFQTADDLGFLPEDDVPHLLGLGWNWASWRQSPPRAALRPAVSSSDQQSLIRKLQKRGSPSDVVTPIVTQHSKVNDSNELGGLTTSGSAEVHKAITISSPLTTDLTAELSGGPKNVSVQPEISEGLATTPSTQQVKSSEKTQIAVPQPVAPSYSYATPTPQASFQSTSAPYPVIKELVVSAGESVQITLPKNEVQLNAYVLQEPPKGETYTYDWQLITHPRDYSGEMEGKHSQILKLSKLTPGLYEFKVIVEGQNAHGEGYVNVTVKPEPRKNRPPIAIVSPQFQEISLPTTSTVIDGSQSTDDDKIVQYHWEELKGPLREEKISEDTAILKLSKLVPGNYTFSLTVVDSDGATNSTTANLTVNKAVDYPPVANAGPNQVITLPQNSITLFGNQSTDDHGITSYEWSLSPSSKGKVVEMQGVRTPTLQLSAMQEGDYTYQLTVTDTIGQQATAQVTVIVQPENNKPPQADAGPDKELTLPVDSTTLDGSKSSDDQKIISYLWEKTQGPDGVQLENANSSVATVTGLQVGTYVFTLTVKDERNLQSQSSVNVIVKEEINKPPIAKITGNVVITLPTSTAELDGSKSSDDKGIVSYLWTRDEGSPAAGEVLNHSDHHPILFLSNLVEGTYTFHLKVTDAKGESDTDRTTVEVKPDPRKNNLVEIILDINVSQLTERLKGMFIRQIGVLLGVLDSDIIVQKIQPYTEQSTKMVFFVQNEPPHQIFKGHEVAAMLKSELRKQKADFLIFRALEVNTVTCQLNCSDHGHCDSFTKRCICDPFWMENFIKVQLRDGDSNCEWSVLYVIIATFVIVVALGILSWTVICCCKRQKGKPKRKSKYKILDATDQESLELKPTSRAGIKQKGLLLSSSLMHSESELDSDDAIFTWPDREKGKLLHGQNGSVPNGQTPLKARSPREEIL
In kind it is cell-based. The following applies: Table 28; AAVR transfected cells. On the procedure: as §1

Test [6] deals with T2, ALPL (Homo sapiens, UniProt P05186).
T2 construct: expressed in transfected cells; host or cells: HEK 293T
T2 sequence (P05186 whole entry, looked up): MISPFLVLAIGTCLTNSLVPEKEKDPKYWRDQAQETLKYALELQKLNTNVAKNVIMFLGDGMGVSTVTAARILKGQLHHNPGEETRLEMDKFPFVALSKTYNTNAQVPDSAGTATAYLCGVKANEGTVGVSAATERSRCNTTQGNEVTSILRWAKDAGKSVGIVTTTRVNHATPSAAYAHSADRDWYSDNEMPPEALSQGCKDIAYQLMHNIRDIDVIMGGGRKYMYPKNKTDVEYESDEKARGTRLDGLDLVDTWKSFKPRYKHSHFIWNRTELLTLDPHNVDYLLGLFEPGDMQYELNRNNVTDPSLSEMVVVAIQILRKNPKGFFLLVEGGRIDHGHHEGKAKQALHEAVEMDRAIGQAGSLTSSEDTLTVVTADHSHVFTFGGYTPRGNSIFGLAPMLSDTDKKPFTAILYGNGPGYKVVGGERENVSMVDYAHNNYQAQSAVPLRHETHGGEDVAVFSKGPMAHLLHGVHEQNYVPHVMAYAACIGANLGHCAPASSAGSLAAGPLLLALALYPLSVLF
It is filed as cell-based. Particulars: for Luciferase Activity (fold change relative to pCMV6 transfected cells): Table 28, ALPL transfected cells; for fold increase in transduction by luciferase assay in cells expressing ALPL: relative to pCMV6 transfected cells, 24 hours post-transduction. How it is done: as §1, §2

For the molecule KAEIGHDSPHKSGQNQQT, the “Fold Enrichment relative to AAV9, Brain (NHP)” value in test [1] (NGS fold-enrichment of matured AAV capsid variants, NHP brain, RNA) worked out at 63.249 fold. In addition, the “Fold Enrichment relative to AAV9, DRG (NHP)” value in test [1] (NHP DRG) is 0.000 fold. Besides, in test [1] (NHP heart), the “Fold Enrichment relative to AAV9, Heart (NHP)” value is recorded as 0.000 fold. The “Fold Enrichment relative to AAV9, Liver DNA (NHP)” value in test [1] (NHP liver, DNA) is 0.024 fold. In test [1] (NHP liver, RNA), the “Fold Enrichment relative to AAV9, Liver RNA (NHP)” value was determined as 0.060 fold. The “Fold Enrichment relative to AAV9, Muscle (NHP)” value in test [1] (NHP muscle) worked out at 0.000 fold. The “Fold enrichment over TTM-002” value in test [2] came out at 2.17. Besides, the “Fold Enrichment relative to AAV9, Brain (Mouse)” value in test [3] was 27.173 fold.

B1: TTM-006: AAV9 capsid variant, full length capsid sequence of Table 4 (protein)
chain: MAADGYLPDWLEDNLSEGIREWWALKPGAPQPKANQQHQDNARGLVLPGYKYLGPGNGLDKGEPVNAADAAALEHDKAYDQQLKAGDNPYLKYNHADAEFQERLKEDTSFGGNLGRAVFQAKKRLLEPLGLVEEAAKTAPGKKRPVEQSPQEPDSSAGIGKSGAQPAKKRLNFGQTGDTESVPDPQPIGEPPAAPSGVGSLTMASGGGAPVADNNEGADGVGSSSGNWHCDSQWLGDRVITTSTRTWALPTYNNHLYKQISNSTSGGSSNDNAYFGYSTPWGYFDFNRFHCHFSPRDWQRLINNNWGFRPKRLNFKLFNIQVKEVTDNNGVKTIANNLTSTVQVFTDSDYQLPYVLGSAHEGCLPPFPADVFMIPQYGYLTLNDGSQAVGRSSFYCLEYFPSQMLRTGNNFQFSYEFENVPFHSSYAHSQSLDRLMNPLIDQYLYYLSKTEKMSGSPHSKAQNQQTLKFSVAGPSNMAVQGRNYIPGPSYRQQRVSTTVTQNNNSEFAWPGASSWALNGRNSLMNPGPAMASHKEGEDRFFPLSGSLIFGKQGTGRDNVDADKVMITNEEEIKTTNPVATESYGQVATNHQSAQAQAQTGWVQNQGILPGMVWQDRDVYLQGPIWAKIPHTDGNFHPSPLMGGFGMKHPPPQILIKNTPVPADPPTAFNKDKLNSFITQYSTGQVSVEIEWELQKENSKRWNPEIQYTSNYYKSNNVEFAVNTEGVYSEPRPIGTRYLTRNL
For B1, the entries for the “Luciferase Activity (fold change relative to pCMV6 transfected cells)” value in test [4], in test [5] and in test [6] were 1 fold, 25 fold and 91 fold, respectively. Also, the “fold increase in transduction by luciferase assay in cells expressing ALPL” value in test [6] is “an increase in transduction”.

B2: TTM-018: AAV9 capsid variant, full length capsid sequence of Table 4 (protein)
chain: B1 chain with E451I, K452N, M453G, S454H, G455D, Q464L
B2: the “Luciferase Activity (fold change relative to pCMV6 transfected cells)” value was 1 fold in test [4], 25 fold in test [5] and 90 fold in test [6]. Also, the “fold increase in transduction by luciferase assay in cells expressing ALPL” value in test [6] is on record as “an increase in transduction”.
